In data set [1] the target is T1, human CGRP receptor (Homo sapiens, UniProt O60894+Q16602).
T1 construct: SK-N-MC endogenously expressing the human CGRP receptor; endogenous in cells; host or cells: SK-N-MC human neuroblastoma cells
As to the kind of experiment: cAMP functional assay (HTRF cAMP dynamic-2) in SK-N-MC cells. The class given is cell-based. The settings on record: SK-N-MC cells endogenously expressing human CGRP receptor; challenge with EC80 human CGRP (0.3 nM); functional pKb converted from pIC50 by modified Cheng-Prussoff equation. The method, then:
Biological Activity cAMP Functional Assay
cAMP production following receptor activation was determined using the Homogeneous Time-Resolved Fluorescence (HTRF) cAMP dynamic-2 assay (Cisbio, France). The human neuroblastoma cell line SK-N-MC endogenously expressing the human CGRP receptor was seeded at a density of 12,500 cells/well in solid walled 96 well half area plates (Costar, Catalog Number 3688, Corning Life Sciences, Germany). After 16 h incubation at 37° C. media was removed and cells were incubated at 37° C. for 30 min in serum free media containing 500 μM IBMX (Tocris, Abingdon, UK, Catalog Number 2845) and increasing concentrations of test antagonist. Following this cells were challenged with an EC80 concentration of human CGRP (0.3 nM) for a further 30 min at 37° C. and then cAMP production was determined as manufacturer's instructions before plates were read on a PheraStar fluorescence plate reader (BMG LabTech, Germany). IC50 values were derived from the inhibition curve. The pIC50 values (where pIC50=−log 10 IC50) were converted to a functional pKb value using a modified Cheng-Prussoff equation where Kd=agonist EC50 and L hot=agonist challenge concentration. The pKb values of certain compounds of the invention are detailed in Table 4.
Background: In TR-FRET formats the signal depends on donor and acceptor labels being close together.

For data set [2] the following is noted: amide bond.
The conditions of data set [3]: amide bond. This is another data set of the same source.

Like-named read-outs stand apart in the source and are kept apart here.

T1 sequence (Q16602 23-461): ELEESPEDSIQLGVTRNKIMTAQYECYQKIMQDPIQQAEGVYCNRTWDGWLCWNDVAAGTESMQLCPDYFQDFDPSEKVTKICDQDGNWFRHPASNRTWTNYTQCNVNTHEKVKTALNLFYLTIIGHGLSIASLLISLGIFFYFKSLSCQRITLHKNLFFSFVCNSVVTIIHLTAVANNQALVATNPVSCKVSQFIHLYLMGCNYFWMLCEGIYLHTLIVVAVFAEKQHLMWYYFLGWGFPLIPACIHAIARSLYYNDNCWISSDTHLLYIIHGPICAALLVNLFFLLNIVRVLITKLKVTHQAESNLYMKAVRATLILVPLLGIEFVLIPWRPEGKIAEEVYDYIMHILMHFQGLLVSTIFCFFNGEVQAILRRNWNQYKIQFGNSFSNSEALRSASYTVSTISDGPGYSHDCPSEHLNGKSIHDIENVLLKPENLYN
T1 sequence (O60894 27-148): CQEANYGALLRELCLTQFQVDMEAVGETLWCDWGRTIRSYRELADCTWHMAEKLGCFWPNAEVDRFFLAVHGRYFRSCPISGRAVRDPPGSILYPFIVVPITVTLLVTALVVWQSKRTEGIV

`Cc1cc(C[C@H]2NC(=O)c3cnc4c(c3)C[C@@]3(C4)C(=O)Nc4ncc(cc43)/C=C/COCCOCCN(C)C2=O)cc2cn[nH]c12` [Example 1-1, (1S,10R,20E)-12-methyl-10-[(7-methyl-1H-indazol-5-yl)methyl]-15,18-dioxa-5,9,12,24,26-pentazapentacyclo[20.5.2.11,4.13,7.025,28]hentriaconta-3,5,7(30),20,22(29),23,25(28)-heptaene-8,11,27-trione] showed a Kb in data set [1] of 0.251 nM. This compound also yielded a ring closure, yield of all isomers in data set [2] (from CNCCOCCOC/C=C/c1cnc2c(c1)[C@@]1(Cc3cc(C(=O)N[C@H](Cc4cc(C)c5[nH]ncc5c4)C(=O)O)cnc3C1)C(=O)N2, HATU, DMA, 6.6 mM, 0.25 h) of 51%. The compound further returned a ring closure, isolated yield in data set [3] (from CNCCOCCOC/C=C/c1cnc2c(c1)[C@@]1(Cc3cc(C(=O)N[C@H](Cc4cc(C)c5[nH]ncc5c4)C(=O)O)cnc3C1)C(=O)N2, 22-membered ring, HATU/DIEA, DMA, 6.6 mM, 0.25 h) of 51%.

In data set [1], `Cc1cc(C[C@H]2NC(=O)c3cnc4c(c3)C[C@@]3(C4)C(=O)Nc4ncc(cc43)/C=C/COCCCCCN(C)C2=O)cc2cn[nH]c12` [Example 1-6, (1S,10R,20E)-12-methyl-10-[(7-methyl-1H-indazol-5-yl)methyl]-18-oxa-5,9,12,24,26-pentazapentacyclo[20.5.2.11,4.13,7.025,28]hentriaconta-3,5,7(30),20,22(29),23,25(28)-heptaene-8,11,27-trione] gave a Kb of 0.0126 nM. Besides, the ring closure, yield of all isomers in data set [2] (from CNCCCCCOC/C=C/c1cnc2c(c1)[C@@]1(Cc3cc(C(=O)N[C@H](Cc4cc(C)c5[nH]ncc5c4)C(=O)O)cnc3C1)C(=O)N2, HATU, DMF, 3.68 mM, 0.03 h) was 58.9%. In data set [3] (from CNCCCCCOC/C=C/c1cnc2c(c1)[C@@]1(Cc3cc(C(=O)N[C@H](Cc4cc(C)c5[nH]ncc5c4)C(=O)O)cnc3C1)C(=O)N2, 22-membered ring, HATU/DIEA, DMF, 3.7 mM, 0.03 h), this compound came in with a ring closure, isolated yield of 58.9%.

With `Cc1cc(C[C@H]2OC(=O)N3CCC4(CC3)OC(=O)Nc3ncc(cc34)/C=C/COCCOCCN(C)C2=O)cc2cn[nH]c12` [Example 7-1, (7R,17E)-9-methyl-7-[(7-methyl-1H-indazol-5-yl)methyl]-6,12,15,25-tetraoxa-4,9,21,23-tetrazatetracyclo[17.6.2.21,4.022,26]nonacosa-17,19(27),20,22(26)-tetraene-5,8,24-trione], in data set [1], the Kb was 1.26 nM. Further, the ring closure, yield of all isomers in data set [2] (from CNCCOCCOC/C=C/c1cnc2c(c1)C1(CCN(C(=O)O[C@H](Cc3cc(C)c4[nH]ncc4c3)C(=O)O)CC1)OC(=O)N2, PyAOP, DMF, 3.76 mM, 0.67 h) was determined as 50%. The compound further had a ring closure, isolated yield in data set [3] (from CNCCOCCOC/C=C/c1cnc2c(c1)C1(CCN(C(=O)O[C@H](Cc3cc(C)c4[nH]ncc4c3)C(=O)O)CC1)OC(=O)N2, 21-membered ring, PyAOP/DIEA, DMF, 3.8 mM, 0.67 h) of 50%.

As for `Cc1cc(C[C@H]2NC(=O)N3CCC4(CC3)OC(=O)Nc3ncc(cc34)/C=C/COCCOCCN(C)C2=O)cc2cn[nH]c12` [Example 6-1, (7R,17E)-9-methyl-7-[(7-methyl-1H-indazol-5-yl)methyl]-12,15,25-trioxa-4,6,9,21,23-pentazatetracyclo[17.6.2.21,4.022,26]nonacosa-17,19(27),20,22(26)-tetraene-5,8,24-trione], in data set [1], the Kb was 0.501 nM. In data set [2] (from CNCCOCCOC/C=C/c1cnc2c(c1)C1(CCN(C(=O)N[C@H](Cc3cc(C)c4[nH]ncc4c3)C(=O)O)CC1)OC(=O)N2, PyAOP, DMF, 3.08 mM, 25.0 °C, 0.5 h), this compound had a ring closure, yield of all isomers of 45%. Besides, the ring closure, isolated yield in data set [3] (from CNCCOCCOC/C=C/c1cnc2c(c1)C1(CCN(C(=O)N[C@H](Cc3cc(C)c4[nH]ncc4c3)C(=O)O)CC1)OC(=O)N2, 21-membered ring, PyAOP/DIEA, DMF, 3.1 mM, 25.0 °C, 0.5 h) was 45%.

Regarding `Cc1cc(C[C@H]2NC(=O)c3cnc4c(c3)C[C@@]3(C4)C(=O)Nc4ncc(cc43)/C=C/CCCCCCCN(C)C2=O)cc2cn[nH]c12` [Example 1-5, (1S,10R,20E)-12-methyl-10-[(7-methyl-1H-indazol-5-yl)methyl]-5,9,12,24,26-pentazapentacyclo[20.5.2.11,4.13,7.025,28]hentriaconta-3,5,7(30),20,22(29),23,25(28)-heptaene-8,11,27-trione], the Kb in data set [1] is 0.0126 nM. In data set [2] (from CNCCCCCCC/C=C/c1cnc2c(c1)[C@@]1(Cc3cc(C(=O)N[C@H](Cc4cc(C)c5[nH]ncc5c4)C(=O)O)cnc3C1)C(=O)N2, HATU, DMF, 3.04 mM), the ring closure, yield of all isomers turned out to be 34.8%. Besides, the ring closure, isolated yield in data set [3] (from CNCCCCCCC/C=C/c1cnc2c(c1)[C@@]1(Cc3cc(C(=O)N[C@H](Cc4cc(C)c5[nH]ncc5c4)C(=O)O)cnc3C1)C(=O)N2, 22-membered ring, HATU/DIEA, DMF, 3.0 mM) was determined as 34.8%.

For the origin of these results see patent US12344621B2, “CGRP antagonist compounds” (Nxera Pharma UK Limited, priority 2019, dated 2025).
